{"source": "patent US20010051636A1", "about": "“Combination treatment for inhibiting bone loss” (priority 1994, published 2001)", "type_in_all_cases": "in vivo", "key": {"[1]": {"test_system": "ovariectomized (ovex) rats", "assay": "Uterine wet weight in the ovex rat study BBA-9311", "protocol": "(§1) The rats were treated daily for 35 days (6 rats per treatment group) and sacrificed by decapitation on the 36th day. […] At the time of sacrifice, the uteri were removed, dissected free of extraneous tissue, and the fluid contents were expelled before determination of wet weight in order to confirm estrogen deficiency associated with complete ovariectomy. […] The uteri were then placed in 10% neutral buffered formalin to allow for subsequent histological analysis."}, "[2]": {"assay": "Body weight change in the ovex rat study BBA-9311", "protocol": "(§2) Body weight was determined at the time of surgery and weekly during the study, and the dosage was adjusted with changes in body weight. Vehicle-treated ovariectomized (ovex) rats and non-ovariectomized (intact) rats were evaluated in parallel with each experimental group to serve as negative and positive controls."}, "[3]": {"test_system": "ovariectomized (ovex) rats", "assay": "5-week ovex rat model of post-menopausal osteoporosis: femur density by X-ray grey scale image analysis", "conditions": "for anti-resorptive activity (in words): 0.1 mg/kg, each compound separately; for RANGE 0-60 (relative density of bone, femur X-ray grey scale): Table 3", "protocol": "In the following, a model of post-menopausal osteoporosis was used in which effects of different treatments upon femur density were determined.\nSeventy-five day old female Sprague Dawley rats (weight range of 225 to 275 g) were obtained from Charles River Laboratories (Portage, Mich.). They were housed in groups of 3 and had ad libitum access to food (calcium content approximately 1%) and water. Room temperature was maintained at 22.2°±1.7° C. with a minimum relative humidity of 40%. The photoperiod in the room was 12 hours light and 12 hours dark.\nOne week after arrival, the rats underwent bilateral ovariectomy under anesthesia (44 mg/kg Ketamine and 5 mg/kg Xylazine (Butler, Indianapolis, Ind.) administered intramuscularly). Treatment with vehicle or the indicated compound was initiated either on the day of surgery following recovery from anesthesia or 35 days following the surgery.\nOral dosage was by gavage in 0.5 mL of 1% carboxymethylcellulose (CMC).\nas §2, §1\nThe right femurs are excised and scanned at the distal metaphysis proximal from the growth plate region by grey scale image analysis of digitalized X-ray generation on a Nicolet NXR-1200 real time X-ray imaging system."}, "[4]": {"conditions": "Table 1, 1 mg/kg PO CDX, 47KV/4.5C, 35 days"}}, "note": "Marks after values point to notes of the source that are not given here.", "data": [{"smiles": "NCCCC(O)(P(=O)(O)O)P(=O)(O)O", "note": "[ALN, Alendronate]", "values": [{"measurement": "Ave Ut Wt", "setting": "[1]; Table 4 BBA-9311, 1 mg/kg", "value": 108.667}, {"measurement": "Ave Ut Wt", "setting": "[1]; Table 4 BBA-9311, .1 mg/kg", "value": 100.833}, {"measurement": "Ave BW Chg", "setting": "[2]; Table 4 BBA-9311, 1 mg/kg", "value": 106.000}, {"measurement": "Ave BW Chg", "setting": "[2]; Table 4 BBA-9311, .1 mg/kg", "value": 102.167}, {"measurement": "anti-resorptive activity (in words)", "setting": "[3]", "value": "inactive"}]}, {"smiles": "C#C[C@]1(O)CC[C@H]2[C@@H]3CCc4cc(O)ccc4[C@H]3CC[C@@]21C", "note": "[EE2, ethynylestradiol]", "values": [{"measurement": "Ave Ut Wt", "setting": "[1]; Table 4, 100 μg/kg", "value": 399.000}, {"measurement": "Ave BW Chg", "setting": "[2]; Table 4, 100 μg/kg", "value": 49.000}, {"measurement": "RANGE 0-50 (relative density of bone, femur X-ray grey scale)", "setting": "[3]; Table 1, 100 μg/kg PO CDX", "value": "51.29*"}, {"measurement": "RANGE 0-50 (relative density of bone, femur X-ray grey scale)", "setting": "[3]; Table 2, 30 μg/kg PO CDX", "value": 50.87}, {"measurement": "RANGE 0-50 (relative density of bone, femur X-ray grey scale)", "setting": "[3]; Table 2, 100 μg/kg PO CDX", "value": "61.09*"}, {"measurement": "RANGE 0-60 (relative density of bone, femur X-ray grey scale)", "setting": "[3]; 100 μg/kg PO CDX", "value": "62.88*"}]}, {"smiles": "CC(=O)O[C@]1(C(C)=O)CC[C@H]2[C@@H]3C[C@H](C)C4=CC(=O)CC[C@]4(C)[C@H]3CC[C@@]21C", "note": "[Provera]", "values": [{"measurement": "protection from bone loss (in words)", "setting": "[3]; 10 mg/kg, by itself", "value": "protective effect"}, {"measurement": "RANGE 0-50 (relative density of bone, femur X-ray grey scale)", "setting": "[3]; [4]", "value": 30.10}, {"measurement": "RANGE 0-50 (relative density of bone, femur X-ray grey scale)", "setting": "[3]; Table 1, 10 mgmg/kg PO CDX, 47KV/4.5C, 35 days", "value": "64.16*"}]}, {"smiles": "Cl.O=C(c1ccc(OCCN2CCCCC2)cc1)c1c(-c2ccc(O)cc2)sc2cc(O)ccc12", "note": "[RAL, [6-hydroxy-2-(4-hydroxyphenyl)benzo[b]thien-3-yl][4-[2-(1-piperidinyl)ethoxy]phenyl]methanone hydrochloride]", "values": [{"measurement": "Ave Ut Wt", "setting": "[1]; Table 4 BBA-9311, 1 mg/kg", "value": 166.000}, {"measurement": "Ave Ut Wt", "setting": "[1]; Table 4 BBA-9311, .1 mg/kg", "value": 157.667}, {"measurement": "Ave BW Chg", "setting": "[2]; Table 4 BBA-9311, 1 mg/kg", "value": 49.667}, {"measurement": "Ave BW Chg", "setting": "[2]; Table 4 BBA-9311, .1 mg/kg", "value": 75.833}, {"measurement": "anti-resorptive activity (in words)", "setting": "[3]", "value": "inactive"}, {"measurement": "RANGE 0-50 (relative density of bone, femur X-ray grey scale)", "setting": "[3]; [4]", "value": "57.67*"}, {"measurement": "RANGE 0-50 (relative density of bone, femur X-ray grey scale)", "setting": "[3]; Table 2, 1 mg/kg PO CDX", "value": "80.98*"}, {"measurement": "RANGE 0-60 (relative density of bone, femur X-ray grey scale)", "setting": "[3]; 0.1 mg/kg PO CDX, 47KV/4.5C", "value": 36.76}, {"measurement": "RANGE 0-60 (relative density of bone, femur X-ray grey scale)", "setting": "[3]; 1 mg/kg PO CDX", "value": 40.37}]}]}
